Laboratory results reported in article PMC9697446 (International Journal of Molecular Sciences, 2022).
Where “and” joins values, the source holds several entries; their conditions need not be identical. Equal values may be shown once.

Experiments:
[1] = target: T1, equine serum BChE (Equus caballus, UniProt P81908); experiment: biochemical; conditions: n = 3; for IC50: IC50 ± SEM
T1 construct: the equine serum BChE, and the porcine liver CES; purchased Sigma-Aldrich; host or cells: equine serum
T1 sequence (P81908 whole entry): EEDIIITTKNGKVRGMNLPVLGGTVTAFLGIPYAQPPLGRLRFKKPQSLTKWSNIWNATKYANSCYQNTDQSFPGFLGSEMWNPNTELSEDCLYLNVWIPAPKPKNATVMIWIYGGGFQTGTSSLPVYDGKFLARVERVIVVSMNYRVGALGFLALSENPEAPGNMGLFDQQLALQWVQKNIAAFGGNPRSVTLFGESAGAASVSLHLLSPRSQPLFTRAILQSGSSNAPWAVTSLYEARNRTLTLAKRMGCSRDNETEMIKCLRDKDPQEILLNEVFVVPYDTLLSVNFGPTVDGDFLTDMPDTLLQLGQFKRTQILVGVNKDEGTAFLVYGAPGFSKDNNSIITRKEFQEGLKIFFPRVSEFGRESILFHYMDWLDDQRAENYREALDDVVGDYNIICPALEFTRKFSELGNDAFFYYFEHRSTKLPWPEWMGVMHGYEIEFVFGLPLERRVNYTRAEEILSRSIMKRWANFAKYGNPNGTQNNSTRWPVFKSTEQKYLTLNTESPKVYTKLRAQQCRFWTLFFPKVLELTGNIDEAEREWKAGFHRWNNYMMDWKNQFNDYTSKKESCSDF
Description: (§1) The esterase profile was estimated using the human erythrocyteAChE, the equine serum BChE, and the porcine liver CES.
(§2) Human erythrocyte AChE, equine serum BChE, porcine liver CES, acetylthiocholine iodide (ATCh), butyrylthiocholine iodide (BTCh), 5,5′-dithio-bis-(2-nitrobenzoic acid) (DTNB), 4-nitrophenol acetate (4-NPA), and BNPP were purchased from Sigma-Aldrich (St. Louis, MO, USA).
(§3) AChE and BChE activities were measured via the Ellman method. The assay solution consisted of 0.1 M K/Na phosphate buffer pH 7.5, 25 °C with the addition of 0.33 mM DTNB, 0.02 unit/mL of AChE or BChE and 1 mM of substrate (ATCh or BTCh, respectively). The assays were carried out with a reagent blank containing all components (except AChE orBChE) in order to account for the non-enzymatic hydrolysis of the substrate. In addition, an enzyme blank was included that contained all components except substrate to account for non-substrate sulfhydryl groups.
(§4) The test compounds were dissolved in DMSO, and the incubation mixture contained 2% (v/v) of the solvent. Enzyme inhibition was first assessed at a single concentration of 20 µM for each compound after a 5 min incubation at 25 °C in three separate experiments. […] The test compounds were added to the assay solution and preincubated at 25 °C with the enzymes for 5 min, followed by the addition of substrate. A parallel control was made for the assay solution with no inhibitor. Measurements were performed with a FLUOStar Optima microplate reader (BMG Labtech, Ortenberg, Germany). Each experiment was performed in triplicate. The results were expressed as the mean ± SEM. The reaction rates in the presence and absence of the inhibitor were compared, and the percent of residual enzyme activity due to the presence of test compounds was calculated.

[2] = test system: porcine liver CES; experiment: CES inhibition (4-nitrophenyl acetate hydrolysis); format: biochemical; conditions: ± SEM, n = 3;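 note: values are percent inhibition of CES activity not residual activity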
Description: as §1, §2
The assay solution consisted of 0.1 M K/Na phosphate buffer pH 8.0, 25 °C, with the addition of 1 mM 4-nitrophenyl acetate and 0.02 unit/mL of CES. The assays were carried out with a blank containing all components, except CES.
as §4

[3] = Oxygen radical absorbance capacity assay (ORAC-FL); conditions: Trolox equivalent, Trolox = 1; means ± SEM (n = 3)
Description: The method is based on the measurement of the fluorescence intensity characterizing the degree of destruction of the fluorescence probe under the action of peroxyl radicals.
The peroxyl radical scavenging capacity of the test compounds was characterized in terms of the Trolox equivalent (TE), which is equal to the ratio of the Trolox concentration to the concentration of a test compound when they show equal fluorescence intensities in the assay. The peroxyl radical scavenging capacity of Trolox was set as 1 [67, 68].
2,2´-Azobis(amidinopropane) dihydrochloride (AAPH), (±)-6-hydroxy-2,5,7,8-tetramethylchroman-2-carboxylic acid (Trolox), and fluorescein (FL) were purchased from Sigma-Aldrich. The reaction was carried out at 37 °C in 75 mM K,Na phosphate buffer (pH 7.4), and the final reaction mixture was 200 µL. The test compounds and the Trolox standard were dissolved in DMSO to 10 mM and further diluted in a 75 mM K,Na phosphate buffer (pH 7.4). The final concentrations were 0.1–1 µM for the test compounds and 1–6 µM for the Trolox. The blank was composed of 20 µL of a 75 mM K,Na phosphate buffer (pH 7.4) containing 20% (v/v) DMSO, 120 µL of FL and 60 µL of AAPH, and it was added in each assay. The antioxidant (20 µL) and FL (120 µL, final concentration: 70 nM) solutions were placed in a black 96-well microplate and were preincubated for 15 min at 37 °C. A solution of AAPH (60 µL, final concentration: 12 mM) was then added rapidly using a multichannel pipette. The microplate was immediately placed in the reader, and the fluorescence was recorded every minute for 100 min. The microplate was automatically shaken prior to each reading. The Trolox standard curve was also obtained in each assay. All reactions were carried out in triplicate, and at least three different assays were performed for each sample.
The antioxidant curves (fluorescence vs. time) were first normalized to the curve of the blank (without the antioxidant) corresponding to the same assay, and the area under the fluorescence decay curve (AUC) was calculated. The net AUC corresponding to a sample was calculated by subtracting the AUC corresponding to the blank. Regression equations were calculated by plotting the net AUC against the antioxidant concentration. The ORAC Tolox equivalent value (TE) was obtained by dividing the slope of the latter curve by the slope of the Trolox curve obtained in the same assay. The ability of Trolox to scavenge the peroxyl radical was equal to 1 [64, 65]. […] The data are expressed as means ± SEM.

[4] = ABTS radical cation scavenging assay; conditions: 1 h incubation, means ± SEM (n = 3); for ABTS Scavenging Activity, TEAC Value: Trolox equivalent antioxidant capacity; for IC50: 50% reduction of ABTS radical
Description: The ABTS assay is based on the direct binding of a model ABTS radical cation (2,2′-azino-bis-(3-ethylbenzothiazoline-6-sulfonate), ABTS^•+) by antioxidants. The measurements were performed as previously described in detail.
The radical scavenging activity was expressed as TEAC values (Trolox equivalent antioxidant capacity) and determined as the ratio between the slopes obtained from the linear correlation of the ABTS radical absorbance with the concentrations of the test compounds and Trolox.
The radical scavenging activity of the compounds was assessed using an ABTS radical decolorization assay. The procedure followed the reported protocol with minor modifications. ABTS (2,2ʹ-azino-bis-(3-ethylbenzothiazoline-6-sulfonic acid) diammonium salt) was purchased from TCI (Tokyo, Japan), while potassium persulfate (di-potassium peroxodisulfate), Trolox (6-hydroxy-2,5,7,8-tetramethylchroman-2-carboxylic acid), catechol, and DMSO were received from Sigma-Aldrich Chemical Co. (St. Louis, MO, USA). The ethanol was HPLC grade. Aqueous solutions were prepared using deionized water.
Trolox was used as the standard reference compound. Catechol was used as the positive control. All test and reference compounds were dissolved in DMSO. The final concentration of DMSO in the reaction mixture was 4% (v/v).
The solution of ABTS radical cation (ABTS^•+) was produced by mixing a 7 mM ABTS stock solution with a 2.45 mM aqueous solution of potassium persulfate in equal quantities and allowing them to react for 12–16 h at room temperature in the dark. At the time of activity determination, the ABTS^•+ solution was diluted with ethanol to adjust it to an absorbance value of about 0.80 ± 0.05 at 734 nm. A fresh working solution of ABTS^•+ was prepared for each assay.
The radical scavenging capacity of the compounds was analyzed by mixing 10 μL of test compound with 240 μL of ABTS^•+ working solution. The reduction in absorbance was measured spectrophotometrically at 734 nm using an xMark microplate UV/VIS spectrophotometer (Bio-Rad, Hercules, CA, USA). The reaction was monitored for an hour at 10 min intervals. Data were given for 1 h of incubation of compounds with ABTS^•+. EtOH blanks were run in each assay. The results were obtained from three replicates of each sample and three independent experiments.
The antioxidant capacity as a Trolox equivalent (TEAC values) was determined as the ratio between the slopes obtained from the linear correlation of concentrations of test compounds and Trolox with absorbance of ABTS radical.

[5] = target: T2, human erythrocyte AChE (Homo sapiens, UniProt P22303); experiment: biochemical; conditions: IC50 ± SEM, n = 3
T2 construct: The esterase profile was estimated using the human erythrocyteAChE; purchased Sigma-Aldrich; host or cells: human erythrocytes
T2 sequence (P22303 32-617 isoform P22303-2 limits assumed): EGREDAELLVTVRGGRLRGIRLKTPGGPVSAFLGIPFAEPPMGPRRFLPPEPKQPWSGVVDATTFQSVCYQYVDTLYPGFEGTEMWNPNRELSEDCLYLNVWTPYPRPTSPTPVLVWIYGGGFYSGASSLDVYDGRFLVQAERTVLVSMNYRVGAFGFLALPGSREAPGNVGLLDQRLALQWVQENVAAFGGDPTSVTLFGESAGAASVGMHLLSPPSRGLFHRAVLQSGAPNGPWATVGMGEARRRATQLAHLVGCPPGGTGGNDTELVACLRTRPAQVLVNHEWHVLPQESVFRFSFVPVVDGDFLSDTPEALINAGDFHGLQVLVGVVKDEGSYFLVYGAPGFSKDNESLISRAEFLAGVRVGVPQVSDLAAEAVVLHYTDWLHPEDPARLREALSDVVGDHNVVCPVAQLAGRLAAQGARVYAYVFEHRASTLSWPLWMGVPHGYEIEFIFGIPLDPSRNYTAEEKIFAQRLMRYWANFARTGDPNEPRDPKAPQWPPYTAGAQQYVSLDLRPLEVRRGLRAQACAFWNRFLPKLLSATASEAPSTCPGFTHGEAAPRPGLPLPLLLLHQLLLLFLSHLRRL
Description: as §1, §2, §3, §4

[6] = target: T3, EeAChE (Electrophorus electricus, UniProt O42275); experiment: biochemical; conditions: means ± SEM (n = 3); read-out: EeAChE Inhibition, IC50
T3 construct: purchased Sigma-Aldrich type VI-S
T3 sequence (O42275 24-633): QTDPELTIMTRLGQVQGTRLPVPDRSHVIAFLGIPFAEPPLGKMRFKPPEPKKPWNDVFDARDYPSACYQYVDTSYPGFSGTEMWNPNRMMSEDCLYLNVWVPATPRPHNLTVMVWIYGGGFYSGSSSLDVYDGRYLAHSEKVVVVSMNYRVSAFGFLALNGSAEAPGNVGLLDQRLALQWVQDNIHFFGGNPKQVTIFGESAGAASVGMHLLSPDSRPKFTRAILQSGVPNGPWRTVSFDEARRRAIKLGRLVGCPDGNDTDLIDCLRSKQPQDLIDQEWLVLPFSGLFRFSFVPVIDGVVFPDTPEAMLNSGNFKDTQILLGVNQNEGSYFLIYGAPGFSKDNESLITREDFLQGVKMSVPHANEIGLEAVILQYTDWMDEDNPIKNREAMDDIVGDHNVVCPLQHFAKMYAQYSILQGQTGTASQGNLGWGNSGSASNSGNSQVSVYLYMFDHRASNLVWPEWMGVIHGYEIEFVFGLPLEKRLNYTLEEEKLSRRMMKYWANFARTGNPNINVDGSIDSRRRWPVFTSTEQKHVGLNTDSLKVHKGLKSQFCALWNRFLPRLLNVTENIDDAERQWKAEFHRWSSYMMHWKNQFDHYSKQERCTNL
Description: We selected AChE from electric eels (Electrophorus electricus) for consistency with our other reports and because of its purity, specific activity, and lower cost compared to human AChE [64].
as §3, §4
PIand donepezil were purchased from Sigma-Aldrich. […] As the source of the enzyme, electric eel (Elecrophorus electricus) AChE (EeAChE, type VI-S, lyophilized powder, Sigma-Aldrich, Saint Louis, MO, USA) was used. The applicability of this enzyme was shown earlier

## CN(C)c1ccc2nc3ccc(=[N+](C)C)cc-3sc2c1 [MB, Methylene blue, reference compound]
[1]
  IC50: 11.1 ± 0.12 µM
[2]
  CES inhibition at 20 µM: 12.3 ± 1.5%
[3]
  ORAC, TE Value: not detectable
[4]
  ABTS Scavenging Activity, TEAC Value: not detectable

## CN(C)c1ccc2c(c1)Sc1cc(N(C)C)ccc1N2C(=O)CCn1c2c(c3cc(F)ccc31)CCCC2 [Compound 4f]
[1]
  IC50: 18.4 ± 1.52 µM
[5]
  IC50: 6.57 ± 0.57 µM
[2]
  CES inhibition at 20 µM: 6.6 ± 0.7%
[6]
  IC50: 1.11 ± 0.12 µM
[3]
  ORAC, TE Value: 5.6 ± 0.4
[4]
  IC50: 27.2 ± 1.6 µM
  ABTS Scavenging Activity, TEAC Value: 0.85 ± 0.04

## Cc1ccc2c(c1)c1c(n2CCC(=O)N2c3ccc(N(C)C)cc3Sc3cc(N(C)C)ccc32)CCCC1 [Compound 4c]
[1]
  IC50: 41.4 ± 1.71 µM
[5]
  IC50: 4.39 ± 0.26 µM
[2]
  CES inhibition at 20 µM: 14.9 ± 1.3%
[6]
  IC50: 1.22 ± 0.01 µM
[3]
  ORAC, TE Value: 5.5 ± 0.4
[4]
  IC50: 17.6 ± 1.8 µM
  ABTS Scavenging Activity, TEAC Value: 1.13 ± 0.09

## Cc1ccc2c(c1)c1c(n2CCC(=O)N2c3ccc(N(C)C)cc3Sc3cc(N(C)C)ccc32)CCCCC1 [Compound 4k]
[1]
  IC50: 22.2 ± 0.92 µM
[5]
  IC50: 12.9 ± 0.53 µM
[2]
  CES inhibition at 20 µM: 5.3 ± 0.6%
[6]
  IC50: 4.12 ± 0.37 µM
[3]
  ORAC, TE Value: 13.4 ± 1.3
[4]
  IC50: 15.4 ± 1.3 µM
  ABTS Scavenging Activity, TEAC Value: 1.20 ± 0.13

## COc1ccc2c(c1)c1c(n2CCC(=O)N2c3ccc(N(C)C)cc3Sc3cc(N(C)C)ccc32)CCCC1 [Compound 4d]
[1]
  IC50: 52.1 ± 2.7 µM
[5]
  IC50: 10.5 ± 0.89 µM
[2]
  CES inhibition at 20 µM: 17.3 ± 1.5%
[6]
  IC50: 2.25 ± 0.07 µM
[3]
  ORAC, TE Value: 4.8 ± 0.3
[4]
  IC50: 39.3 ± 1.5 µM
  ABTS Scavenging Activity, TEAC Value: 0.75 ± 0.05

## CN(C)c1ccc2c(c1)Sc1cc(N(C)C)ccc1N2C(=O)CCn1c2c(c3cc(OC(F)(F)F)ccc31)CCCC2 [Compound 4h]
[1]
  IC50: 47.6 ± 4.59 µM
[5]
  IC50: 6.89 ± 0.09 µM
[2]
  CES inhibition at 20 µM: 3.1 ± 0.5%
[6]
  IC50: 0.89 ± 0.09 µM
[3]
  ORAC, TE Value: 5.8 ± 0.5
[4]
  IC50: 17.8 ± 1.4 µM
  ABTS Scavenging Activity, TEAC Value: 1.10 ± 0.10

## CN(C)c1ccc2c(c1)Sc1cc(N(C)C)ccc1N2C(=O)CCn1c2c(c3ccccc31)CCCCCC2 [Compound 4m]
[1]
  IC50: 21.7 ± 0.51 µM
[5]
  IC50: 2.98 ± 0.1 µM
[2]
  CES inhibition at 20 µM: 13.0 ± 1.1%
[6]
  IC50: 0.57 ± 0.02 µM
[3]
  ORAC, TE Value: 15.7 ± 1.5
[4]
  IC50: 16.7 ± 1.6 µM
  ABTS Scavenging Activity, TEAC Value: 1.11 ± 0.07

## CN(C)c1ccc2c(c1)Sc1cc(N(C)C)ccc1N2C(=O)CCn1c2c(c3ccccc31)CCCC2 [Compound 4b]
[1]
  IC50: 48.7 ± 2.09 µM
[5]
  IC50: 12.3 ± 1.51 µM
[2]
  CES inhibition at 20 µM: 22.6 ± 2.1%
[6]
  IC50: 2.42 ± 0.18 µM
[3]
  ORAC, TE Value: 8.6 ± 0.1
[4]
  IC50: 24.3 ± 1.5 µM
  ABTS Scavenging Activity, TEAC Value: 0.90 ± 0.04

## CN(C)c1ccc2c(c1)Sc1cc(N(C)C)ccc1N2C(=O)CCn1c2c(c3ccccc31)CCCCC2 [Compound 4j]
[1]
  IC50: 9.98 ± 0.86 µM
[5]
  IC50: 10.7 ± 0.67 µM
[2]
  CES inhibition at 20 µM: 11.3 ± 1.2%
[6]
  IC50: 2.7 ± 0.09 µM
[3]
  ORAC, TE Value: 12.4 ± 0.2
[4]
  IC50: 16.3 ± 1.4 µM
  ABTS Scavenging Activity, TEAC Value: 1.15 ± 0.09

## Cc1ccc2c(c1)c1c(n2CCC(=O)N2c3ccc(N(C)C)cc3Sc3cc(N(C)C)ccc32)CCCCCC1 [Compound 4n]
[1]
  IC50: 15.6 ± 1.13 µM
[5]
  IC50: 6.26 ± 0.01 µM
[2]
  CES inhibition at 20 µM: 33.1 ± 3.1%
[6]
  IC50: 0.95 ± 0.07 µM
[3]
  ORAC, TE Value: 10.9 ± 0.6
[4]
  IC50: 14.9 ± 1.2 µM
  ABTS Scavenging Activity, TEAC Value: 1.20 ± 0.14

## CN(C)c1ccc2c(c1)Sc1cc(N(C)C)ccc1N2C(=O)CCn1c2c(c3ccccc31)CCC2 [Compound 4a]
[1]
  IC50: 42.13 ± 0.41 µM
[5]
  IC50: 11.1 ± 0.69 µM
[2]
  CES inhibition at 20 µM: 19.4 ± 1.8%
[6]
  IC50: 2.35 ± 0.23 µM
[3]
  ORAC, TE Value: 6.8±0.4
[4]
  IC50: 21 ± 1.4 µM
  ABTS Scavenging Activity, TEAC Value: 0.99 ± 0.08

## COc1ccc2c(c1)c1c(n2CCC(=O)N2c3ccc(N(C)C)cc3Sc3cc(N(C)C)ccc32)CCC(C)C1 (stereo not shown) [Compound 4e]
[1]; 20 µM, ± SEM
  inhibition at 20 µM: 22.9 ± 2%
[5]
  IC50: 9.81 ± 0.18 µM
[2]
  CES inhibition at 20 µM: 15.0 ± 1.3%
[6]
  IC50: 1.92 ± 0.14 µM
[3]
  ORAC, TE Value: 13.3 ± 1.3
[4]
  IC50: 13.7 ± 0.9 µM
  ABTS Scavenging Activity, TEAC Value: 1.46 and 1.46 ± 0.11

## CN(C)c1ccc2c(c1)Sc1cc(N(C)C)ccc1N2 [MBH2, reference compound]
[1]
  IC50: 10.1 ± 0.16 µM
[5]
  IC50: 1.76 ± 0.09 µM
[2]
  CES inhibition at 20 µM: 17.2 ± 1.8%
[6]
  IC50: 0.28 ± 0.02 µM
[3]
  ORAC, TE Value: not detectable
[4]
  ABTS Scavenging Activity, TEAC Value: not detectable

## CC1CCc2c(c3cc(OC(F)(F)F)ccc3n2CCC(=O)N2c3ccc(N(C)C)cc3Sc3cc(N(C)C)ccc32)C1 (stereo not shown) [Compound 4i]
[1]
  IC50: 6.07 ± 0.58 µM
[5]
  IC50: 1.94 ± 0.09 µM
[2]
  CES inhibition at 20 µM: 3.5 ± 0.4%
[6]
  IC50: 0.41 ± 0.03 µM
[3]
  ORAC, TE Value: 5.1 ± 0.4
[4]
  IC50: 17.2 ± 1.2 µM
  ABTS Scavenging Activity, TEAC Value: 1.14 ± 0.11
